Measured values taken from article PMC5522529, “Mechanisms of Paradoxical Activation of AMPK by the Kinase Inhibitors SU6656 and Sorafenib” (Cell Chemical Biology, 2017).

How the values were obtained:
[1] = target: T1, α1 kinase domain (α1-KD, residues 1–312) (Homo sapiens, UniProt Q13131); test: Activity of FLAG-tagged α1 kinase domain expressed in HEK293 cells; type: cell-based; settings: 1 hr
T1 construct: amplifying residues 1-312 with an N-terminal FLAG-tag; expressed in transfected cells; host or cells: HEK293 (transient transfection, pcDNA5 FRT)
From the text: (§1) We next expressed an FLAG-tagged α1 kinase domain (α1-KD, residues 1–312) by transient transfection in HEK293 cells, treated the cells with various AMPK activators, and then assayed both the expressed α1-KD (precipitated using anti-FLAG) and endogenous full-length α1 complexes (precipitated using anti-α1 antibodies recognizing an epitope outside the α1-KD). […] This was also observed with A23187, as expected since this ionophore increases intracellular Ca^2+ and activates the alternate upstream kinase CaMKK2.
(§2) The α1-KD was precipitated using anti-FLAG and endogenous AMPK complexes using anti-α1 antibody, and activity determined. Results (mean ± SD, n = 2) are expressed relative to activities in DMSO controls. (B) Western blots (n = 2) using the indicated antibodies; samples from experiment in (A). (C) DNAs encoding FLAG-tagged AMPK-α1 (WT or AT mutant) were expressed by transient transfection in HEK293 cells, the cells treated with increasing concentrations of SU6656 for 1 hr, AMPK complexes precipitated with anti-FLAG, and activity measured. Results (mean ± SD, n = 3) are expressed relative to the DMSO control. […] Results (mean ± SD, n = 3) are expressed relative to the DMSO control. **p < 0.01, ***p < 0.001, ****p < 0.0001, ^†††p < 0.001; ns, not significant.
A plasmid encoding the AMPK-α2 kinase domain (α2-KD) was made by amplifying residues 1-310 with 5' BamH1 and 3' Xho1 sites, the resulting PCR product was cloned into pGEX6P2. Point mutations were generated using the Quikchange II site-directed mutagenesis kit (Stratagene) and confirmed by DNA sequencing.

AMPK-α1 (WT) = target: T2, AMPK-α1 (WT) (Homo sapiens, UniProt Q13131); test: AMPK activity of FLAG-tagged AMPK-α1 (WT) expressed in HEK293 cells; type: cell-based; settings: 1 hr; for AMPK activity: WT FLAG-α1 (comparison with AT mutant); for AMPK activity and Thr172 phosphorylation: WT FLAG-α1, A769662 300 μM, berberine 300 μM, phenformin 10 mM, troglitazone 100 μM, oligomycin 1 μM, SU6656 100 μM
T2 construct: we expressed FLAG-tagged full-length AMPK-α1 either as the WT or the AT mutant; expressed in transfected cells; host or cells: HEK293
From the text: (§3) (B) Western blotting of the same preparations as in (A). […] (D) Allosteric activation of WT and mutant α1β1γ1 complexes by MT 63-78, curve fitting as for (C). […] (E) Allosteric activation of WT and mutant α1β1γ1 complexes by AMP. Data were fitted to the equation for activation/inactivation by AMP ([Gowans et al., 2013]). […] (F) Activation of WT and AA mutant by various AMPK activators in HEK293 cells. […] FLAG-tagged complexes were isolated by immunoprecipitation and AMPK activity determined (mean ± SEM, n = 2).
(§4) We next expressed the FLAG-tagged WT or AA mutant of AMPK-α1 by transient transfection in HEK293 cells, treated with various agents, and measured AMPK activity in anti-FLAG immunoprecipitates. In Figure 4F, the results are expressed as absolute activities and are accompanied by blots showing Thr172 phosphorylation.
The α1-KD was precipitated using anti-FLAG and endogenous AMPK complexes using anti-α1 antibody, and activity determined. […] (B) Western blots (n = 2) using the indicated antibodies; samples from experiment in (A). (C) DNAs encoding FLAG-tagged AMPK-α1 (WT or AT mutant) were expressed by transient transfection in HEK293 cells, the cells treated with increasing concentrations of SU6656 for 1 hr, AMPK complexes precipitated with anti-FLAG, and activity measured.

human AMPK-α2 (WT) = human AMPK-α2 (WT) (Homo sapiens, UniProt P54646); test: AMPK activity of FLAG-tagged WT AMPK-α2 expressed in HEK293 cells; type: cell-based; settings: SU6656 100 μM, phenformin 10 mM, A23187 10 μM, 1 hr
Description: (§5) Top: AMPK activity (mean ± SEM, n = 4); bottom: western blots showing phosphorylation of Thr172 on AMPK, and of ERK1/2, in cells treated with DMSO (control), SU6656 (100 μM), or PP2 (100 nM) (n = 2). (B) As (A), but in SYF cells. (C) HeLa cells were transfected with DNAs encoding GFP alone, or GFP fused to WT, Y261F/Y365F (FF), or Y36F/Y261F/Y365F (FFF) mutants of LKB1; cells were treated with increasing concentrations of SU6656 for 1 hr and AMPK activity determined (mean ± SEM, n = 4). See also Figure S1. (D) HEK293 cells were transfected with DNAs encoding FLAG-tagged AMPK-α2 with or without a Y436F mutation. Cells were incubated with DMSO (control), 100 μM SU6656, 10 mM phenformin, or 10 μM A23187 for 1 hr; AMPK complexes were immunoprecipitated using anti-FLAG antibody and assayed. The top panels show kinase activities (mean ± SD, n = 3); the bottom panels show blots from the same experiment (n = 2). In all panels, asterisks indicate significant differences from DMSO controls; in (D), there were no significant differences between the WT and Y463F mutant. **p < 0.01, ****p < 0.0001.

[2] = target: T3, human AMPK-α2 Y436F mutant (Homo sapiens, UniProt P54646, Y436F); test: AMPK activity of FLAG-tagged Y436F AMPK-α2 expressed in HEK293 cells; type: cell-based; settings: SU6656 100 μM, phenformin 10 mM, A23187 10 μM, 1 hr
T3 construct: expressed in transfected cells; host or cells: HEK293 (transient transfection)
Description: as §5

AMPK-α1 AT mutant = target: T4, AMPK-α1 AT mutant (Homo sapiens, UniProt Q13131, A167T); test: AMPK activity of FLAG-tagged AMPK-α1 AT mutant expressed in HEK293 cells; type: cell-based; settings: AT mutant FLAG-α1, 1 hr
T4 construct: we expressed FLAG-tagged full-length AMPK-α1 either as the WT or the AT mutant; expressed in transfected cells; host or cells: HEK293 (transient transfection)
From the text: as §2
To confirm that it acted by binding at the catalytic site, we expressed FLAG-tagged full-length AMPK-α1 either as the WT or the AT mutant.

[3] = target: T5, endogenous full-length α1 complexes (Homo sapiens, UniProt Q13131); test: Activity of endogenous full-length α1 complexes in HEK293 cells; type: cell-based; settings: 1 hr
T5 construct: endogenous in cells
From the text: as §1, §2

AMPK-α1 AA mutant = target: T6, AMPK-α1 AA mutant (Homo sapiens, UniProt Q13131, K40A/K42A); test: AMPK activity of FLAG-tagged AMPK-α1 K40A/K42A (AA) mutant expressed in HEK293 cells; type: cell-based; settings: AA mutant FLAG-α1; same concentrations, 1 hr
T6 construct: Plasmid encoding full-length human AMPK-α1; expressed in transfected cells; host or cells: HEK293
From the text: as §3, §4

[4] = target: T7, human α1β1γ1 complex with K42A mutation in α1 (Homo sapiens, UniProt P54619+Q13131+Q9Y478, K42A); test: Allosteric activation of α1β1γ1 complex, K42A mutant; type: biochemical
T7 construct: made in house; host or cells: Escherichia coli
From the text: (§6) We next tested whether SU6656 activates AMPK by binding at the ADaM site. […] We therefore expressed WT or single (K40A, K42A) or double (K40A/K42A, AA) α1 mutants in the context of the human α1β1γ1 complex (Figure 4A).
as §3
(§7) Endogenous AMPK was immunoprecipitated using the specified antibodies (for total AMPK, an equal mixture of anti-α1 and –α2 antibodies) and assayed at 200 μM ATP ([Hardie et al., 2000], [Towler et al., 2008]) using the AMARA peptide ([Dale et al., 1995]) as substrate, except for assays of allosteric activation by AMP (Figure 5A) where the SAMS peptide was used as substrate with 2 mM ATP ([Gowans et al., 2013]). The AMPK-related kinases SIK1, SIK2, SIK3, SNARK, MARK2/3 and MARK4 were immunoprecipitated and assayed as previously described ([Lizcano et al., 2004]) in lysates of Hela cells stably expressing LKB1 ([Fogarty et al., 2010]). LKB1 was assayed using the LKBtide peptide as substrate ([Sakamoto et al., 2004]).
(§8) Data were fitted to the specified equations by non-linear regression using GraphPad Prism 6 for Mac OSX.

AMPK-γ2 (WT) = target: T8, AMPK-γ2 (WT) (Homo sapiens, UniProt Q9UGJ0); test: AMPK activity in HEK293 cells expressing WT AMPK-γ2; type: cell-based; settings: 1 hr
T8 construct: expressed in transfected cells; host or cells: Flp-In T-REx 293 (HEK293), tetracycline-inducible
From the text: (§9) The next possibility was that, like several other AMPK-activating drugs, SU6656 inhibits mitochondrial ATP synthesis, and thus activates AMPK indirectly by increasing cellular AMP/ADP. To test this, we used cell lines inducibly expressing either WT AMPK-γ2 or an AMP/ADP-resistant R531G (RG) mutant ([Hawley et al., 2010]). […] There were no effects of SU6656 on cellular oxygen uptake, unlike berberine. Subsequent addition of the uncoupler 2,4-dinitrophenol (DNP), which prevents the respiratory chain from being limited by ADP supply, increased oxygen uptake identically in control and SU6656-treated cells but had no effect following berberine, as expected for a complex I inhibitor (Figure S2).
(§10) (B) WT or RG cells were treated as in (A) and nucleotides extracted for analysis (mean ± SD, n = 3). […] (E) (See also Figure S2) Time courses of cellular oxygen uptake before and after addition of the indicated concentrations of sorafenib (SO, μM), SU6656 (100 μM) or phenformin (PHEN, 10 mM) (mean ± SEM, n = 4). (F) Effect of various concentrations of sorafenib or phenformin (10 mM) on activation (top, mean ± SEM, n = 3) or phosphorylation (bottom) of AMPK in cells expressing wild-type AMPK-γ2 (WT) or the R531G mutant AMPK-γ2 (RG). In all panels, asterisks show significant differences from DMSO controls (ns, not significant). In (B), daggers (†) show significant differences between results in WT and RG cells. *p < 0.05, **p < 0.01, ***p < 0.001, ****p < 0.0001, ^††††p < 0.0001.
(§11) HEK-293 cells stably expressing tetracycline-inducible FLAG-tagged human AMPK-γ2, or an R531G mutant, were generated by introducing the corresponding DNAs into Flp-In™ T-REx™ 293 cells ([Auciello et al., 2014]). Expression of the FLAG-tagged constructs was induced for 48 hr using tetracycline (1 μg.ml^-1) prior to addition of compounds under test. Transient transfections were carried out 36-48 hr prior to experiments, using Fugene 6 according to manufacturers’ instructions.

human α1β1γ1 complex = target: T9, human α1β1γ1 complex (Homo sapiens, UniProt P54619+Q13131+Q9Y478); test: Allosteric activation of bacterially expressed human α1β1γ1 complex, WT; type: biochemical
T9 construct: made in house; host or cells: Escherichia coli
From the text: as §6, §3, §7, §8

[5] = target: T10, human α1β1γ1 complex with K40A mutation in α1 (Homo sapiens, UniProt P54619+Q13131+Q9Y478, K40A); test: Allosteric activation of α1β1γ1 complex, K40A mutant; type: biochemical
T10 construct: made in house; host or cells: Escherichia coli
From the text: as §6, §3, §7, §8

[6] = target: T11, human α1β1γ1 complex with K40A/K42A (AA) mutations in α1 (Homo sapiens, UniProt P54619+Q13131+Q9Y478, K40A/K42A); test: Allosteric activation of α1β1γ1 complex, K40A/K42A (AA) mutant; type: biochemical
T11 construct: made in house; host or cells: Escherichia coli
From the text: as §6, §3, §7, §8

[7] = target: T12, AMPK-γ2 R531G (RG) mutant (Homo sapiens, UniProt Q9UGJ0, R531G); test: AMPK activity in HEK293 cells expressing R531G AMPK-γ2; type: cell-based; settings: 1 hr
T12 construct: expressed in transfected cells
From the text: as §9, §10, §11

T6 sequence (Q13131 whole entry K40A/K42A): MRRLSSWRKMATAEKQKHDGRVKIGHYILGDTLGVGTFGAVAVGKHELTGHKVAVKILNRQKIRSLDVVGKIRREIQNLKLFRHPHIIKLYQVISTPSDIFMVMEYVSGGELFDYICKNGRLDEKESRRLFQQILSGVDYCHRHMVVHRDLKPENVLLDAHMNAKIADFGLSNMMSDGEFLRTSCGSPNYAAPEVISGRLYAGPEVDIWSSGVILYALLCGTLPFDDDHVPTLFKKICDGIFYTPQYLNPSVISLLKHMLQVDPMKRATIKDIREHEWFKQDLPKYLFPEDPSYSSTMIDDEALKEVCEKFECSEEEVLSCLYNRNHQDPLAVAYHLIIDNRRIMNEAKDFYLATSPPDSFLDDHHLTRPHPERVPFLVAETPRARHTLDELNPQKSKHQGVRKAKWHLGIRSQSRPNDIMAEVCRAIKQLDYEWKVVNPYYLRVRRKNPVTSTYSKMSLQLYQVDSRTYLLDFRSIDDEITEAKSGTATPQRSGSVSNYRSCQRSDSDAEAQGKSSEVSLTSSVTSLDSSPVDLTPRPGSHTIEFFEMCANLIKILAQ
T6 sequence (P54619 whole entry partner): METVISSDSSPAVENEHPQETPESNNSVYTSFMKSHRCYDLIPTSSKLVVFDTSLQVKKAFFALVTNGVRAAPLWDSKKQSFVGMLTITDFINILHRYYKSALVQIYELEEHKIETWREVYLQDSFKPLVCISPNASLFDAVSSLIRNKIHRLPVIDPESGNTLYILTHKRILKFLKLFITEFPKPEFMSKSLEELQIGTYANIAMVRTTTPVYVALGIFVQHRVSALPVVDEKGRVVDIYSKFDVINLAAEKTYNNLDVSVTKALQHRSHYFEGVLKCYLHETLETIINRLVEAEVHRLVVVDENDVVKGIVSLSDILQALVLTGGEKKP
T2 sequence (Q13131 whole entry): as the sequence (Q13131 whole entry K40A/K42A) above, with A40K, A42K counted along it
T2 sequence (P54619 whole entry partner): as the sequence (P54619 whole entry partner) above
T5 sequence (Q13131 whole entry): as the sequence (Q13131 whole entry K40A/K42A) above, with A40K, A42K counted along it
T5 sequence (P54619 whole entry partner): as the sequence (P54619 whole entry partner) above
T1 sequence (Q13131 1-312): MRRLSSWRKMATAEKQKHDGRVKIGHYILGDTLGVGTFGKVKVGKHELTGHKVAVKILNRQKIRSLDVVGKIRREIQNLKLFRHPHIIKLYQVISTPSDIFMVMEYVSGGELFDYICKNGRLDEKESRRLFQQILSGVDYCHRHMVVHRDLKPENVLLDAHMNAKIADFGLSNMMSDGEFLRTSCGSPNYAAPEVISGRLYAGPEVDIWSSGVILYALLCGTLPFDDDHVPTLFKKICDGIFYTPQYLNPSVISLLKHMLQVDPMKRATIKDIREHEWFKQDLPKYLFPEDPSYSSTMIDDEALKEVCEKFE
T11 sequence (Q13131 whole entry K40A/K42A): as the sequence (Q13131 whole entry K40A/K42A) above
T11 sequence (Q9Y478 whole entry): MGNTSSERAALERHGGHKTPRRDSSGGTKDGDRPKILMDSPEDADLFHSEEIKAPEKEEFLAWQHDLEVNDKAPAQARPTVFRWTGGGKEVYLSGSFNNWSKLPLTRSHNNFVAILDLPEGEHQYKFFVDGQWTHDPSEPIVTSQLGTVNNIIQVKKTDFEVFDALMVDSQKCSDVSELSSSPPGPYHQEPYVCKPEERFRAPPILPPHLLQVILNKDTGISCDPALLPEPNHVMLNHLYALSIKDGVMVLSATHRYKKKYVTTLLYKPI
T11 sequence (P54619 whole entry): as the sequence (P54619 whole entry partner) above
T10 sequence (Q13131 whole entry K40A): as the sequence (Q13131 whole entry K40A/K42A) above, with A42K counted along it
T10 sequence (Q9Y478 whole entry): as the sequence (Q9Y478 whole entry) above
T10 sequence (P54619 whole entry): as the sequence (P54619 whole entry partner) above
T9 sequence (Q13131 whole entry): as the sequence (Q13131 whole entry K40A/K42A) above, with A40K, A42K counted along it
T9 sequence (Q9Y478 whole entry): as the sequence (Q9Y478 whole entry) above
T9 sequence (P54619 whole entry): as the sequence (P54619 whole entry partner) above
T8 sequence (Q9UGJ0 whole entry): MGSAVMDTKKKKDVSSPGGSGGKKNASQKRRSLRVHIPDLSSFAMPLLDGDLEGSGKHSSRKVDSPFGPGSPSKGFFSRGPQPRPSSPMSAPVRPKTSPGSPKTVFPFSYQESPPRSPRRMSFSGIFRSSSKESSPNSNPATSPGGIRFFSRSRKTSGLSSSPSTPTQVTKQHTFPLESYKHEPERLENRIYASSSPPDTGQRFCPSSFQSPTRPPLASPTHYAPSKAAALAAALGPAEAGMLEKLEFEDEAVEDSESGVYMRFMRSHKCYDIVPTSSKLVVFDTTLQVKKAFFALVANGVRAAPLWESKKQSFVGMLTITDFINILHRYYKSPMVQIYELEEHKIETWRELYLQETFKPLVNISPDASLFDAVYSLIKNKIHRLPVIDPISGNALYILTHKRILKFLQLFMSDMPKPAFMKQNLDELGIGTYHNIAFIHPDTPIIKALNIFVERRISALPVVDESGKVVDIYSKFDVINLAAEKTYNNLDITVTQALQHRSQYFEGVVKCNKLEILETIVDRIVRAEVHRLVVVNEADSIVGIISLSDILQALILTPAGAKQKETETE
human AMPK-α2 (WT), sequence (P54646 whole entry, the tested form may be a part): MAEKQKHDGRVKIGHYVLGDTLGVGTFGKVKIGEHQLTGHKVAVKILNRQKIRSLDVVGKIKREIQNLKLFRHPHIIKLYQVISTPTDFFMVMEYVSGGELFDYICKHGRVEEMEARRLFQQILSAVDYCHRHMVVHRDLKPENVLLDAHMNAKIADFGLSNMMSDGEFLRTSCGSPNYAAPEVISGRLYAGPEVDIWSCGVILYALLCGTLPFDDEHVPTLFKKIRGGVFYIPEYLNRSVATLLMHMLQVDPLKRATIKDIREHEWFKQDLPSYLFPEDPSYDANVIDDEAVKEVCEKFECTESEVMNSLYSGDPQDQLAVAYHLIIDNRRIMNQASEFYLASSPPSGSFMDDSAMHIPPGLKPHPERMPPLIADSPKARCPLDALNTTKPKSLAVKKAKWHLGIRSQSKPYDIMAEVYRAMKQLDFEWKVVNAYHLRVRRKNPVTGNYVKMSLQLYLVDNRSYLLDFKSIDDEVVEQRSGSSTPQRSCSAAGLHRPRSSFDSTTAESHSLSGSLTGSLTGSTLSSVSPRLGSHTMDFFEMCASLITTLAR
human AMPK-α2 (WT), sequence (P54619 whole entry partner, the tested form may be a part): as the sequence (P54619 whole entry partner) above
T4 sequence (Q13131 whole entry A167T): as the sequence (Q13131 whole entry K40A/K42A) above, with A40K, A42K, A167T counted along it
T4 sequence (P54619 whole entry partner): as the sequence (P54619 whole entry partner) above
T12 sequence (Q9UGJ0 whole entry R531G): as the sequence (Q9UGJ0 whole entry) above, with R531G counted along it
T3 sequence (P54646 whole entry Y436F): as the sequence (P54646 whole entry, the tested form may be a part) above, with Y436F counted along it
T3 sequence (P54619 whole entry partner): as the sequence (P54619 whole entry partner) above
T7 sequence (Q13131 whole entry K42A): as the sequence (Q13131 whole entry K40A/K42A) above, with A40K counted along it
T7 sequence (Q9Y478 whole entry): as the sequence (Q9Y478 whole entry) above
T7 sequence (P54619 whole entry): as the sequence (P54619 whole entry partner) above

Structure (SMILES)	kinase activity / Thr172 phosphorylation [1]	AMPK activity (AMPK-α1 (WT))	AMPK activity in anti-FLAG immunoprecipitates (human AMPK-α2 (WT))	AMPK activation response with Y436F mutation [2]	AMPK activity (AMPK-α1 AT mutant)	kinase activity / Thr172 phosphorylation [3]	effect of AA mutation on AMPK activation (AMPK-α1 AA mutant)	AMPK activity and Thr172 phosphorylation (AMPK-α1 (WT))	Activation (maximal allosteric activation) [4]	AMPK activity (AMPK-γ2 (WT))	Activation (maximal allosteric activation) (human α1β1γ1 complex; not phosphorylated on Thr172, relative to basal activity)	EC50 (human α1β1γ1 complex; read-out: EC50 (concentration causing half-maximal effect))	Activation (maximal allosteric activation) [5]	EC50 [5]	Activation (maximal allosteric activation) [6]	EC50 [6]	AMPK activity [7]
CNc1ccc2oc(C[C@H]3O[C@@]4(CC[C@H]3C)O[C@H]([C@H](C)C(=O)c3ccc[nH]3)[C@H](C)C[C@H]4C)nc2c1C(=O)O [A23187]	also observed	activated equally well	all activated AMPK	unaffected by the Y436F mutation	activated equally well	also observed											
CC[C@H]1/C=C/C=C/C[C@@H](C)[C@H](O)[C@@](C)(O)C(=O)[C@@H](C)[C@H](O)[C@@H](C)C(=O)[C@@H](C)[C@H](O)[C@@H](C)/C=C/C(=O)O[C@@H]2[C@H](C)[C@H](CC1)O[C@]1(CC[C@H](C)[C@H](C[C@@H](C)O)O1)[C@H]2C [oligomycin]							abolished	activated AMPK and caused Thr172 phosphorylation									
Cc1c(C)c2c(c(C)c1O)CCC(C)(COc1ccc(CC3SC(=O)NC3=O)cc1)O2 (stereo not shown) [troglitazone]	failed to activate or cause Thr172 phosphorylation					doing this with the endogenous complexes	abolished	activated AMPK and caused Thr172 phosphorylation									
N#Cc1c(O)c2c(-c3ccc(-c4ccccc4O)cc3)csc2[nH]c1=O [A769662]		did not cause a significant activation				not statistically significant	completely prevented	activated AMPK and caused Thr172 phosphorylation	21 ± 0.6 fold	activated AMPK in both	38 ± 1 fold	1000 ± 100 nM	18 ± 0.7 fold	4000 ± 700 nM	1.0 ± 0.03 fold	1 ± 2 nM	activated AMPK in both
